Assay in all cases: biochemical
In assay [1] the target is T1, panel of 374 wild-type kinases (Homo sapiens, UniProt O75460).
T1 construct: purchased Reaction Biology Corporation
As to conditions: read-out: % Enzyme Activity (relative to DMSO controls), ERN1/IRE1.

Assay [2] concerns the target T2, panel of 374 wild-type kinases (Homo sapiens, UniProt O95747).
T2 construct: purchased Reaction Biology Corporation
Conditions: read-out: % Enzyme Activity (relative to DMSO controls), OSR1/OXSR1.

Assay [3] addresses T3, panel of 374 wild-type kinases (Homo sapiens, UniProt P29317).
T3 construct: purchased Reaction Biology Corporation
Conditions: read-out: % Enzyme Activity (relative to DMSO controls), EPHA2.

For assay [4], the target named is T4, panel of 374 wild-type kinases (Homo sapiens, UniProt P32298).
T4 construct: purchased Reaction Biology Corporation
Conditions: read-out: % Enzyme Activity (relative to DMSO controls), GRK4.

Assay [5] addresses T5, panel of 374 wild-type kinases (Homo sapiens, UniProt P34947).
T5 construct: purchased Reaction Biology Corporation
As to conditions: read-out: % Enzyme Activity (relative to DMSO controls), GRK5.

Assay [6] addresses T6, panel of 374 wild-type kinases (Homo sapiens, UniProt Q13188).
T6 construct: purchased Reaction Biology Corporation
T6 sequence (Q13188 1-491): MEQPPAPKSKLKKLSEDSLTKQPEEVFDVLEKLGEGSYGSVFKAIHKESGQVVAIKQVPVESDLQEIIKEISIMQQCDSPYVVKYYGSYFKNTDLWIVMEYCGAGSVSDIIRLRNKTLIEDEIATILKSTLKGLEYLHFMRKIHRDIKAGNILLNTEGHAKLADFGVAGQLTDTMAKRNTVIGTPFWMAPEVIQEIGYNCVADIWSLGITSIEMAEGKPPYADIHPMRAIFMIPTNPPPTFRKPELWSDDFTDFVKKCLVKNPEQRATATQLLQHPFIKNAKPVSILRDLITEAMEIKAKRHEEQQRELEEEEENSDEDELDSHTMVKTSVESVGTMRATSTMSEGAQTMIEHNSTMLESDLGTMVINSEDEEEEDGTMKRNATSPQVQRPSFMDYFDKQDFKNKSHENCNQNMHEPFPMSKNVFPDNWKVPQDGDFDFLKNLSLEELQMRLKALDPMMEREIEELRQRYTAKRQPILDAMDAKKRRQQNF
As to conditions: read-out: % Enzyme Activity (relative to DMSO controls), MST2/STK3.

For assay [7], the target named is T7, panel of 374 wild-type kinases (Homo sapiens, UniProt Q14164).
T7 construct: purchased Reaction Biology Corporation
T7 sequence (Q14164 1-716): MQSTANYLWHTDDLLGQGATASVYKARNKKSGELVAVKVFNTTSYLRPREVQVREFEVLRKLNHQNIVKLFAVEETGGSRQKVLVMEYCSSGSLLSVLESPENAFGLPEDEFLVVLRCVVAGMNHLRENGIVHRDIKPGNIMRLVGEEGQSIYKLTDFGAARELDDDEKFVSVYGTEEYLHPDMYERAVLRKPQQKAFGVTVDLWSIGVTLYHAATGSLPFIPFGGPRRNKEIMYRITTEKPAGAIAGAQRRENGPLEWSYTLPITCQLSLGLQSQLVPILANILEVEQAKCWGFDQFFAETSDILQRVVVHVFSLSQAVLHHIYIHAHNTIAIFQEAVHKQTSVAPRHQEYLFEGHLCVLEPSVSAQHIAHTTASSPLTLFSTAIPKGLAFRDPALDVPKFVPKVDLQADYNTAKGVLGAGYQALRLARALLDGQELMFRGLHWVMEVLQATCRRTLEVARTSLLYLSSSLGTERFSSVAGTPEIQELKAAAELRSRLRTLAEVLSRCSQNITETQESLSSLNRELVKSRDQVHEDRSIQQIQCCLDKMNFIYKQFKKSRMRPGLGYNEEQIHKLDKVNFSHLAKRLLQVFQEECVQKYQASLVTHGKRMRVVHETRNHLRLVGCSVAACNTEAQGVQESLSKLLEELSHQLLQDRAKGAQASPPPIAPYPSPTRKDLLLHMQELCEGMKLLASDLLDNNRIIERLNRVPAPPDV
As to conditions: read-out: % Enzyme Activity (relative to DMSO controls), IKKe/IKBKE.

Assay [8] has as its target T8, panel of 374 wild-type kinases (Homo sapiens, UniProt Q92918).
T8 construct: purchased Reaction Biology Corporation
Conditions: read-out: % Enzyme Activity (relative to DMSO controls), HPK1/MAP4K1.

The target in assay [9] is T9, panel of 374 wild-type kinases (Homo sapiens, UniProt Q9BYT3).
T9 construct: purchased Reaction Biology Corporation
As to conditions: kinase STK33, read-out: % Enzyme Activity (relative to DMSO controls).

Assay [10] has as its target T10, panel of 374 wild-type kinases (Homo sapiens, UniProt Q9NRH2).
T10 construct: purchased Reaction Biology Corporation
T10 sequence (Q9NRH2 1-765): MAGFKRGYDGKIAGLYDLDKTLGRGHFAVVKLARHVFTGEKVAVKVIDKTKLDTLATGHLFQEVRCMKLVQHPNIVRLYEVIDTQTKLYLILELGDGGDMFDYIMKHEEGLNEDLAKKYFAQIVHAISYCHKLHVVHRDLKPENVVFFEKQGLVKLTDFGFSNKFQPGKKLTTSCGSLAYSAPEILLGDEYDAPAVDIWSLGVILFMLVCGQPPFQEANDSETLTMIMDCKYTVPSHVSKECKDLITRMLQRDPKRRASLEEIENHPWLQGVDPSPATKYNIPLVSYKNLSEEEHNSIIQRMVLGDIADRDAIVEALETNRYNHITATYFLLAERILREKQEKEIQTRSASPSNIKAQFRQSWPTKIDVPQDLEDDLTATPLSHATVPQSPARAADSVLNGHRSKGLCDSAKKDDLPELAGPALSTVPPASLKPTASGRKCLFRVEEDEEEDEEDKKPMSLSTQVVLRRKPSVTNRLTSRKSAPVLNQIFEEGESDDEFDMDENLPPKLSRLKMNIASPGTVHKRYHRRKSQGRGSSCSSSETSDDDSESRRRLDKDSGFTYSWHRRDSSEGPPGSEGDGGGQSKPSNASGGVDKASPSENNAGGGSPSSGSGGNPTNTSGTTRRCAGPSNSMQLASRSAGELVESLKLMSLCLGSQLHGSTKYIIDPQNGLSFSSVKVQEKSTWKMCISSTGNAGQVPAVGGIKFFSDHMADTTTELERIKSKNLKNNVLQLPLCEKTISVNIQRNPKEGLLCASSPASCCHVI
Conditions: read-out: % Enzyme Activity (relative to DMSO controls), kinase SNRK.

T5 sequence (P34947 whole entry): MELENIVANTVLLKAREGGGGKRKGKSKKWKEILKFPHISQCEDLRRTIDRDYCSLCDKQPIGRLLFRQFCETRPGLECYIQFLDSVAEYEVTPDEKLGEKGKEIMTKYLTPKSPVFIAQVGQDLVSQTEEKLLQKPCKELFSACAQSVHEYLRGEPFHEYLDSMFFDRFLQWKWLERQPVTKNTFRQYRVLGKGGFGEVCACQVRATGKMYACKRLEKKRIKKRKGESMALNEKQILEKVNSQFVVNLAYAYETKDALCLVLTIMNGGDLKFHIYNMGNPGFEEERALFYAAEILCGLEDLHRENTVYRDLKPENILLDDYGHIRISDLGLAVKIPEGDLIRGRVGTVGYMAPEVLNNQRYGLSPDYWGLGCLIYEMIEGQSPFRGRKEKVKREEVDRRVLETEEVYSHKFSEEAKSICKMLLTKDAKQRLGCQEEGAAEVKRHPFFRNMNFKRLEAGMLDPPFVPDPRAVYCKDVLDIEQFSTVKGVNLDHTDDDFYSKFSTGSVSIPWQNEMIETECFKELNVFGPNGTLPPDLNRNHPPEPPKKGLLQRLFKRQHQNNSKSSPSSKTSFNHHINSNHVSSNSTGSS
T2 sequence (O95747 whole entry): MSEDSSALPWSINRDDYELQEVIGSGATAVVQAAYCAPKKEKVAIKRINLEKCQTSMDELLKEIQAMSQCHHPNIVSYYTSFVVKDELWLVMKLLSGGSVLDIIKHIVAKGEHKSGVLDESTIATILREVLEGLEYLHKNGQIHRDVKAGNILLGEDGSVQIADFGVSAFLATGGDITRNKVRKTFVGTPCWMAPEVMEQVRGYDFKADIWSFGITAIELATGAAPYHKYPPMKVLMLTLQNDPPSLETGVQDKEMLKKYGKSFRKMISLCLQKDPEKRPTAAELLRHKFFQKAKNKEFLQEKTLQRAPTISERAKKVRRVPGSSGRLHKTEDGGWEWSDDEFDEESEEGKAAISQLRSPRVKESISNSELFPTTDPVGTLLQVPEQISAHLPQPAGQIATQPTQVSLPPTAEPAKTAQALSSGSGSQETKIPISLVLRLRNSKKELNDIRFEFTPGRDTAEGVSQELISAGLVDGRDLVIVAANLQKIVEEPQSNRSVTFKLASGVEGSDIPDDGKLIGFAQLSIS
T3 sequence (P29317 24-976): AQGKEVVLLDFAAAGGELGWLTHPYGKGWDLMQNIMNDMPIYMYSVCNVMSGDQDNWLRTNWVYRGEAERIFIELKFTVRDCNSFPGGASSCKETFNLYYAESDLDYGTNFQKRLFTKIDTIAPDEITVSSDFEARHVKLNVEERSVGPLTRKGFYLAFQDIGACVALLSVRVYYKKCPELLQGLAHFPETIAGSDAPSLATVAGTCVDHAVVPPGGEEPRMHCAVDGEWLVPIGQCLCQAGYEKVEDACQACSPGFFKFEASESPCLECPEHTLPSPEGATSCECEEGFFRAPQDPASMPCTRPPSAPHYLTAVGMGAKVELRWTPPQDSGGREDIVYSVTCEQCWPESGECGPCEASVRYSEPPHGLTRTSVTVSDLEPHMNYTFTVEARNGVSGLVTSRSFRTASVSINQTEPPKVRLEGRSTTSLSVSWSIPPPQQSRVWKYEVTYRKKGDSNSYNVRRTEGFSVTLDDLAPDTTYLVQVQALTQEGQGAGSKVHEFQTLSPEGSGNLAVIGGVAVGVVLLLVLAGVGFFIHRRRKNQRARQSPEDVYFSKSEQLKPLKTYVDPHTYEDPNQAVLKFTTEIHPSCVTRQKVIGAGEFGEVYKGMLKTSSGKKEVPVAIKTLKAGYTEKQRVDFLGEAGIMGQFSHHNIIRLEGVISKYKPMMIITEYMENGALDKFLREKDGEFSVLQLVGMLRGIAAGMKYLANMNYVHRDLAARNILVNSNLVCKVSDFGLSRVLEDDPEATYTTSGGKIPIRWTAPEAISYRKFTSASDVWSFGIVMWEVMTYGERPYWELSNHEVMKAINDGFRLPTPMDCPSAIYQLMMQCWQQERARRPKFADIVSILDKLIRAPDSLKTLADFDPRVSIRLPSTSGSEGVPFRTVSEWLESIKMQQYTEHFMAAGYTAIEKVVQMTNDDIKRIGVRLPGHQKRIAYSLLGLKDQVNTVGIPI
T9 sequence (Q9BYT3 whole entry): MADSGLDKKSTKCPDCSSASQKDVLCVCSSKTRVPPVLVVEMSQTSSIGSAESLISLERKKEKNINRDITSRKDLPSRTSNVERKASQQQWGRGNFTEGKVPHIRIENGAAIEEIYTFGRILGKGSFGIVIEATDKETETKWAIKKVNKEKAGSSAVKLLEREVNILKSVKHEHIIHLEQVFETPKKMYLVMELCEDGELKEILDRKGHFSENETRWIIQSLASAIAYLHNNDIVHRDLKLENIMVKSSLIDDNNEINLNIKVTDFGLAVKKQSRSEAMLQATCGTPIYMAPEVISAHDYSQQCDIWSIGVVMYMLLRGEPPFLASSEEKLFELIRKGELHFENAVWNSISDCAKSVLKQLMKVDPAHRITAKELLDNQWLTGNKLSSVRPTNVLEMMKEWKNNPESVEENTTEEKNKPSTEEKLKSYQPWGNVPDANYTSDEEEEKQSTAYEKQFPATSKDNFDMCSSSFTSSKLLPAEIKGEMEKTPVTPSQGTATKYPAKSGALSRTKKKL
T1 sequence (O75460 19-977): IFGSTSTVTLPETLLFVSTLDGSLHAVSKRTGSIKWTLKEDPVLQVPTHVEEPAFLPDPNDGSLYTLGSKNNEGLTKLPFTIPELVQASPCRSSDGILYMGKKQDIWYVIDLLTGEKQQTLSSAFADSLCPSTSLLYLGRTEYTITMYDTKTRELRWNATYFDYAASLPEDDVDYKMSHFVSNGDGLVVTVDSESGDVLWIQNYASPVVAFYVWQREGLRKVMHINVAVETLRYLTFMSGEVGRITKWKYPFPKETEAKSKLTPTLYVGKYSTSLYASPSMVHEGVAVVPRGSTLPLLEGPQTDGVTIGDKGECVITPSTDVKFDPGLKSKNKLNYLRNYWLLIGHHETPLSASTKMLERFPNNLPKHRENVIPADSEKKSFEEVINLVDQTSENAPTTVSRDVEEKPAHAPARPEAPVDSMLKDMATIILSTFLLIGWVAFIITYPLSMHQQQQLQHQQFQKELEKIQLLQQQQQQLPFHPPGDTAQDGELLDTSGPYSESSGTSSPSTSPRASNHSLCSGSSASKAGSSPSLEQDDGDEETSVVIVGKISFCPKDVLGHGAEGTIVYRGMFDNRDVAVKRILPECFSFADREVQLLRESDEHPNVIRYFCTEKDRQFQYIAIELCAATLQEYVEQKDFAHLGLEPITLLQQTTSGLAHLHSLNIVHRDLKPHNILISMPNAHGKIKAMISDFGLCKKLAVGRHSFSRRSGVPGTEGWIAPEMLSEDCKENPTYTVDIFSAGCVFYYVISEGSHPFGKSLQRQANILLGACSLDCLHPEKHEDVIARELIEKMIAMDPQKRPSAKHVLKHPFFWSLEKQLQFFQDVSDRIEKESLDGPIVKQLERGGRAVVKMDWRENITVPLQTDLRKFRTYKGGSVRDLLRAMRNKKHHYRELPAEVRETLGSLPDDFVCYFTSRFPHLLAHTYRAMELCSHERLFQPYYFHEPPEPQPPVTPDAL
T8 sequence (Q92918 whole entry): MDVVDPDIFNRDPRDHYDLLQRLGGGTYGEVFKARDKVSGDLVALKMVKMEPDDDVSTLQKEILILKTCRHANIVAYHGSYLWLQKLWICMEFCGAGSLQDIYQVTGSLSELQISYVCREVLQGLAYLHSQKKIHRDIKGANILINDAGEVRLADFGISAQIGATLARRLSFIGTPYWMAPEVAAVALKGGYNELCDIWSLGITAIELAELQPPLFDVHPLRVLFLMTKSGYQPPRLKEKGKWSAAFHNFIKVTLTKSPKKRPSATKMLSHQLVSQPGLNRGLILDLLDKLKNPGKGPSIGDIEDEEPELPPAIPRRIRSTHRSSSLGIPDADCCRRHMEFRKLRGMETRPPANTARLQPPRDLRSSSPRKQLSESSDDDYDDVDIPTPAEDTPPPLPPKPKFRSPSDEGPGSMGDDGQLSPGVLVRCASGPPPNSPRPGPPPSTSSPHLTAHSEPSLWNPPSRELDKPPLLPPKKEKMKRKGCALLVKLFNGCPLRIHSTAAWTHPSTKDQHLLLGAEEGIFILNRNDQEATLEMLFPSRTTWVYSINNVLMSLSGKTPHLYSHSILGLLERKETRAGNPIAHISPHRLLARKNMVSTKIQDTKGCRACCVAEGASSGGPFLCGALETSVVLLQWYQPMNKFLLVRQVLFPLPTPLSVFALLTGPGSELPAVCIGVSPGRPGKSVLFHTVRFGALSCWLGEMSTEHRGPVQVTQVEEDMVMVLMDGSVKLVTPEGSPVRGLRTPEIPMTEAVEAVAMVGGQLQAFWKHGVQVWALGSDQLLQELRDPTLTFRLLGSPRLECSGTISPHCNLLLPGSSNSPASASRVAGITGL
T4 sequence (P32298 whole entry): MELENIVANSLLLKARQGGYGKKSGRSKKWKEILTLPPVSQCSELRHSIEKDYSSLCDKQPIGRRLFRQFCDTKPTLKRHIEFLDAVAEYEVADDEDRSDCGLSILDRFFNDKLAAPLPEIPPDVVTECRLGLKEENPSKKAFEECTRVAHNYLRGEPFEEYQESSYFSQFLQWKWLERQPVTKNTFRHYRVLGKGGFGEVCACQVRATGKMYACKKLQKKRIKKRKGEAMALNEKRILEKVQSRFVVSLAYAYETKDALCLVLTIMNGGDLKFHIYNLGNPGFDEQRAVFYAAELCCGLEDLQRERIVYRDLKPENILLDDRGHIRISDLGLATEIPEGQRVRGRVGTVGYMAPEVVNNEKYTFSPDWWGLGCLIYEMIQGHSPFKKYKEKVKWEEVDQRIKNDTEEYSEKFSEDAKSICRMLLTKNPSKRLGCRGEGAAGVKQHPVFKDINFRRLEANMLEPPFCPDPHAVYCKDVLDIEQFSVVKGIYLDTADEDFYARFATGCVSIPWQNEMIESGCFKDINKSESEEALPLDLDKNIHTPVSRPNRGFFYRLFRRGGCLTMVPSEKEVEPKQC

For the compound `O=C(Nc1cnn(-c2csc(C(=O)NC3COC3)c2)c1)Nc1ccccc1Cl` [Compound 17, 4-(4-(3-(2-chlorophenyl)ureido)-1H-pyrazol-1-yl)-N-(oxetan-3-yl)thiophene-2-carboxamide], the remaining activity at 5 µM in assay [1] came to 94.3%; in [2], 92.6%; in [3], 101%; in [4] it was 97%; in [5], 98%; in assay [6], 120%. The remaining activity at 5 µM in assay [7] stood at 110%; in assay [8] it was 132%; in [9], 99.3%; in assay [10], 96.8%.

As to `O=C(Nc1cnn(-c2csc(C(=O)NC3COC3)c2)c1)Nc1c(F)cccc1Cl` [Compound 25, 4-(4-(3-(2-chloro-6-fluorophenyl)ureido)-1H-pyrazol-1-yl)-N-(oxetan-3-yl)thiophene-2-carboxamide], the remaining activity at 5 µM is 95.8% in assay [1]; 96.5% in [2]; 97.9% in assay [3]; 93.6% in [4]; 102% in [5]; 93.2% in assay [6]. Moreover, the remaining activity at 5 µM in [7] was determined as 96.8%; in assay [8], 92.7%; in [9], 81.8%; in [10] it was 98.8%.

For `Cc1sc(C(=O)NC2COC2)cc1-n1cc(NC(=O)Nc2c(F)cccc2Cl)cn1` [Compound 27, 4-(4-(3-(2-chloro-6-fluorophenyl)ureido)-1H-pyrazol-1-yl)-5-methyl-N-(oxetan-3-yl)thiophene-2-carboxamide], the remaining activity at 10 µM was found to be 94.1% in assay [1] (10 uM); 127% in [2] (10 uM); 102% in assay [3] (10 uM); 113% in assay [4] (10 uM); 113% in assay [5] (10 uM); 93.9% in assay [6] (10 uM). The remaining activity at 10 µM in [7] (10 uM) was found to be 116%; in assay [8] (10 uM) it was 99.2%; in [9] (10 uM) it was 87.6%; in assay [10] (10 uM) it was 102%.

The values above are taken from patent US20240246942A1, “KINASE INHIBITORS FOR THE TREATMENT OF NEURODEGENERATIVE DISEASES” (priority 2020, published 2024).
